Assay results taken from the SangsterLogP compilation.

## COc1ccc(C(=O)N(C)N)cc1
  logP: 1.23

## CC=NN(C(=O)c1ccc(OC)cc1)c1ccccc1
  logP: 3.27

## Cc1ccc(C(=O)N(C)NC(=S)Nc2ccccc2)cc1
  logP: 2.88

## Cc1ccc(C(=O)N(NC(=S)Nc2ccccc2)c2ccccc2)cc1
  logP: 4.12

## C/C=N/N(C(=O)c1ccc([N+](=O)[O-])cc1)c1ccccc1
  logP: 3.14

## COc1ccc(C(=O)N(C)NC(=S)Nc2ccccc2)cc1
  logP: 2.8

## NN(C(=O)c1ccccc1)c1ccccc1
  logP: 2.44

## CN(NC(=S)Nc1ccccc1)C(=O)c1ccc([N+](=O)[O-])cc1
  logP: 2.69

## CN(N)C(=O)c1ccccc1
  logP: 0.96

## O=C(c1ccc([N+](=O)[O-])cc1)N(NC(=S)Nc1ccccc1)c1ccccc1
  logP: 3.91

## NN(C(=O)c1ccc([N+](=O)[O-])cc1)c1ccccc1
  logP: 2.62

## CC=NN(C(=O)c1ccccc1)c1ccccc1
  logP: 2.88

## C/C=N/N(C(=O)c1ccc(C)cc1)c1ccccc1
  logP: 3.39

## CN(N)C(=O)c1ccc([N+](=O)[O-])cc1
  logP: 0.99

## Cc1ccc(C(=O)N(C)N)cc1
  logP: 1.57

## Cc1ccc(C(=O)N(N)c2ccccc2)cc1
  logP: 3.1

## COc1ccc(C(=O)N(N)c2ccccc2)cc1
  logP: 2.94
